Results from US9028797B2, “Composite body for antigen or drug delivery” (priority 2010, dated 2015).

Columns and labels:
[1] = test system: dendritic cell line, DC2.4 cell; test: Cellular uptake of fluorescently labeled BSA, fluorescence microscopy (Example 3); assay type: cell-based; details: incubated 2 hr, imaged 22 hr later
Protocol: As a model protein, bovine serum albumin (BSA) was fluorescently labeled with rhodamine B isothiocyanate and used. A BSA/BAC/γ-PGA complex prepared using benzalkonium chloride (BAC) and γ-PGA with BSA or BSA was added to a dendritic cell line, DC2.4 cell, and the mixture was incubated for 2 hr. The cells were washed and fluorescence images of the cell were measured by a fluorescence microscope 22 hr later.

OVA = test: Antibody titer to OVA by ELISA in serum of immunized mice (Example 13); assay type: in vivo; details: mouse serum 2 weeks after final immunization; every other week, 4 times
Protocol: OVA/BK/γ-PGA complex was constructed using ovalbumin (OVA), benzalkonium chloride (BK) and γ-PGA. OVA alone, benzalkonium chloride and γ-PGA (vector alone), and OVA/BK/γ-PGA complex were administered to mice every other week, 4 times in total for immunization. After 2 weeks from the final immunization, the serum was collected, and the antibody titer to OVA was measured by ELISA. For the measurement of the antibody titer, an HRP-labeled goat-derived anti-mouse IgG antibody was used as the secondary antibody.

[2] = test system: OVA-expressing cancer cell (EG7); test: Tumor growth of intradermally transplanted OVA-expressing cancer cell after immunization (Example 14); assay type: in vivo, mice; details: EG7 intradermally transplanted 2 weeks after final immunization
Protocol: OVA/BK/γ-PGA complex was constructed using ovalbumin (OVA), benzalkonium chloride (BK) and γ-PGA. To the mice were administered OVA alone, benzalkonium chloride and γ-PGA (vector alone), and OVA/BK/γ-PGA complex every other week, 4 times in total. After 2 weeks from the final immunization, OVA-expressing cancer cell (EG7) was intradermally transplanted, and the tumor growth after transplantation was observed.

Substance | cellular uptake by dendritic cell (fluorescence of BSA) [1] | antibody titer to OVA (immunity induction effect) (OVA) | tumor growth suppressive effect [2]
bovine serum albumin [BSA] | not observed | – | –
ovalbumin [ovalbumin antigen alone] | – | did not show an immunity induction effect | did not show a tumor growth suppressive effect
